Where two headings read alike, the source gives them in different places.
Experiments:
[1] = tested on: HCV replicon in Huh7 cells; assay: HCV replicon cell-based assay (FRET); conditions: Hepatitis C virus
Procedure, shortened: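 Huh7 cells stably carrying a genotype 1b HCV replicon (IRES-neo-EMCV-IRES-NS3-NS5B) were treated with compound for 4 days at 37 °C in 0.5% DMSO final. Lysates containing 10 μM FRET peptide RET S1 were read kinetically at 340/490 nm to give NS3 protease activity, from which EC50 was derived.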

[2] = molecular target: T1, human sputum elastase (HS) (Homo sapiens, UniProt P08246); assay: Specificity assay, human sputum elastase; type: biochemical; conditions: 2 hr pre-incubation
T1 construct: purchased Sigma
T1 sequence (P08246 30-267): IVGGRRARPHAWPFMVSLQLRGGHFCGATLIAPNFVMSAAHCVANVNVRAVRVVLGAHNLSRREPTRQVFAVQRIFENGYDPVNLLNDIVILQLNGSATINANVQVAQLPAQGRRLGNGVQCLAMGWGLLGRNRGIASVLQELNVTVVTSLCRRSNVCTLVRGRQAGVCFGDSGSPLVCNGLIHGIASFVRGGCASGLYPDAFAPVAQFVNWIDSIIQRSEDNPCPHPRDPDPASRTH

[3] = molecular target: T2, human liver cathepsin B (Homo sapiens, UniProt P07858); assay: Specificity assay, cathepsin B; type: biochemical; conditions: 2 hr pre-incubation
T2 construct: purchased Sigma
Protocol: The specificities of compounds of the present invention were determined against a variety of serine proteases: human sputum elastase (HS), porcine pancreatic elastase (PPE) and human pancreatic chymotrypsin and one cysteine protease: human liver cathepsin B. In all cases a 96-well plate format protocol using colorimetric p-nitroaniline (pNA) substrate specific for each enzyme was used as described previously (Patent WO 00/09543) with some modifications to the serine protease assays. All enzymes were purchased from Sigma while the substrates were from Bachem.
Each assay included a 2 hr enzyme-inhibitor pre-incubation at room temperature followed by addition of substrate and hydrolysis to ˜30% conversion as measured on a Spectramax Pro microplate reader. Compound concentrations varied from 100 to 0.4 μM depending on their potency. […]
The percentage of inhibition was calculated using the formula: [1−((UVinh−UVblank)/(UVctl−UVblank))]×100 […]

C=CC1C[C@]1(NC(=O)[C@@H]1C[C@@H](Oc2cc(-c3ccccc3)nc3cc(OC)ccc23)CN1C(=O)[C@@H](NC(=O)OC(C)(C)C)C(C)(C)C)C(=O)NS(=O)(=O)C1(C)CC1 (stereo in doubt) [Compound 1, (1-{4-(7-Methoxy-2-phenylquinolin-4-yloxy)-2-[1-(1-methylcyclopropanesulfonylaminocarbonyl)-2-vinylcyclopropylcarbamoyl]pyrrolidine-1-carbonyl}-2,2-dimethylpropyl)carbamic acid tert-butyl ester]
EC50 ([1]; Huh-7, 96 h, Huh7 cells, 4 days, read-out: EC50 value in the replicon assay): 0.0139 µM
EC50 ([1]; Huh-7, HCV replicon, read-out: EC50 range): < 0.05 µM
IC50 [2]: 43 µM
IC50 [3]: > 100 µM

Reference: US6878722B2, “Substituted cycloalkyl P1′ hepatitis C virus inhibitors” (Bristol-Myers Squibb Company, priority 2002, dated 2005)
